The text below walks through data of patent US9586963B2 (GENFIT, priority 2011, dated 2017).

Series [1] concerns the target T1, Rev-Erb alpha (Homo sapiens, UniProt P20393).
T1 sequence (P20393 284-614 limits assumed): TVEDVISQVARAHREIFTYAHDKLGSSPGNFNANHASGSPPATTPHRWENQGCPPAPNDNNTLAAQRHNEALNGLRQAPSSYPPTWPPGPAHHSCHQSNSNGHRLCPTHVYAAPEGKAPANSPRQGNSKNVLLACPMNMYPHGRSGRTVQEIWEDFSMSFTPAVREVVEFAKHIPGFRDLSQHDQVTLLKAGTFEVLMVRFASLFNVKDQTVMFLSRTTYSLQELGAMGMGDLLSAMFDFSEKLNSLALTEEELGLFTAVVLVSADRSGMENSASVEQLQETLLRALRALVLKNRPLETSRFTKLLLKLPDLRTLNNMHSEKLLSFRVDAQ
As to the kind of experiment: M2H (mammalian two-hybrid) cellular activation assay of Rev-Erb alpha. Particulars: M2H assay, HEK293 cells; for EC50: Gal4-Rev-Erb alpha / VP16-NCoR, luciferase reporter; for Emax: relative to DMSO, at the tested dose, read-out: TOP activation. It is filed as cell-based. The procedure, abridged: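 Six-point dose-response, 18 h, 37 °C, serum-free, in HEK293 cells carrying a Gal4-RE luciferase reporter with Gal4-Rev-Erb alpha or beta plus VP16-NCoR (corepressor interaction readout). EC50 and TOP activation (%) derived from luminescence across four experiments.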
A general note: A reporter such as luciferase makes a cellular process visible.

For series [2], the target named is T1, Rev-Erb alpha. As to the kind of experiment: TR-FRET (HTRF) assay of Rev-Erb alpha LBD with NCoR peptide ID1. It is filed as biochemical. Conditions: cell-free, Rev-Erb alpha LBD His 20 nM, NCoR ID1 30 nM. The method, then:
Recombinant histidine-tagged Rev-Erb alpha ligand binding domain (LBD; SEQ ID NO: 1) and NCoR peptide ID1 (SEQ ID NO: 2) were tagged with fluorophores. Histidine-tagged Rev-Erb alpha LBD protein was set up in a one to one ratio of 20 nM of His D2 (Cis Bio International 61HSDLB). The NCoR peptide (ID1) was prepared in-house. We used a concentration of 30 nM NCoR and 10 nM Terbium-labeled streptavidin (Cis Bio International 610SATLB).
The buffer for this assay comprised PBS pH 7.2, NaH2P04 at 4 g/L, Na2HP04 at 27 g/L and NaCl at 9 g/l in deionized water. Before using the buffer in the assay, a mixture comprising 1 mM of DTT, 2 mM of CHAPS, 1 mM of EDTA and 0.1% BSA fatty acid free was added to the appropriate amount of buffer. The protein mixture comprising recombinant Rev-Erb alpha LBD His (20 nM), the NCoR ID1 (30 nM) and their respective fluorophores were added to each well of a 384-well plate in a volume 18 μl. The compounds to analyze were diluted in PBS 10% DMSO and was added in a volume of 2 μL in a well. The final mixture volume was 20 μL and the mixture was allowed equilibrate for 2 hours at room temperature. Fluorescence intensity was then counted on the TECAN Genios Pro as a ratio of the fluorescence measured at 665 nm and that measured at 620 nm obtained in the absence of the compound (buffer only) or with the compound. Four experiments were carried out for each compound.
Each compound has been tested at 6 different concentrations to depict a dose-effect enabling the measure of biochemical parameters such as EC50 and TOP activation (%).
The Homogenous Time Resolved Fluorescence (HTRF) assay allows studying the ability of compounds according to the invention to activate Rev-Erb alpha and thus modulate the interaction with its corepressor. The molecular interactions between these bio-molecules are assessed in a cell-free assay by coupling each partner with a fluorescent label and detecting the level of energy transfer. This energy transfer occurs when the distance between the donor (SA Terbium complex) and the acceptor (D2) is small enough.
The ability of compounds according to the invention of activating Rev-Erb alpha was assessed in the described acellular assay. EC50 and TOP activation were measured.
(In general: TR-FRET usually uses a lanthanide donor and a delayed reading to cut background.)

For `Clc1nnc2ccc(Oc3cccc(-c4ccccc4)c3)nn12` [Cpd.3-1, 6-(biphenyl-3-yloxy)-3-chloro-[1,2,4]triazolo[4,3-b]pyridazine], the concentration giving a half-maximal response (EC50) at Rev-Erb alpha [1] and on Rev-Erb alpha [2] was 100 to 1000 nM in each case.

Compound `O=C(c1ccccc1)c1cccc(Oc2ccc3nnc(Cl)n3n2)c1` [Cpd.3-2, (3-(3-chloro-[1,2,4]triazolo[4,3-b]pyridazin-6-yloxy)phenyl)(phenyl)methanone] displayed a melting point of 148 °C. Moreover, the half-maximal effective concentration (EC50) on Rev-Erb alpha [1] was in the range of 100 to 1000 nM. Further, the EC50 at Rev-Erb alpha [2] was less than 100 nM.

In turn, `FC(F)(F)c1nnc2ccc(Oc3cccc(-c4ccccc4)c3)nn12` [Cpd.3-3, 6-(biphenyl-3-yloxy)-3-(trifluoromethyl)-[1,2,4]triazolo[4,3-b]pyridazine] came in with a melting point of 140.2 °C. Moreover, the concentration for a half-maximal effect (EC50) at Rev-Erb alpha [1] lay in the range of 100 to 1000 nM. The same compound gave a concentration for a half-maximal effect (EC50) at Rev-Erb alpha [2] of 1100 to 6000 nM.

Take `O=C(c1ccccc1)c1cccc(Oc2ccc3nnc(C(F)(F)F)n3n2)c1` [Cpd.3-4, (3-(3-(trifluoromethyl)-[1,2,4]triazolo[4,3-b]pyridazin-6-yloxy)phenyl)(phenyl)methanone]: the melting point came to 94.4 °C. The compound also returned a 50% effective concentration (EC50) on Rev-Erb alpha [1] of 100 to 1000 nM. The EC50 at Rev-Erb alpha [2] was in the range of 100 to 1000 nM.

`FC(F)(F)c1nnc2ccc(Oc3cccc(Cc4ccccc4)c3)nn12` [Cpd.3-5, 6-(3-benzylphenoxy)-3-(trifluoromethyl)-[1,2,4]triazolo[4,3-b]pyridazine] gave a melting point of 115 °C. The EC50 on Rev-Erb alpha [1] was in the range of 100 to 1000 nM. On Rev-Erb alpha [2], this compound returned an EC50 of 100 to 1000 nM.

`Clc1nnc2ccc(Oc3ccccc3-c3ccccc3)nn12` [Cpd.4-1, 6-(biphenyl-2-yloxy)-3-chloro-[1,2,4]triazolo[4,3-b]pyridazine] registered a melting point of 163 °C. For the same compound, on Rev-Erb alpha [1], the EC50 was less than 100 nM. Also, at Rev-Erb alpha [2], the EC50 lay within 1100 to 6000 nM.

As for `Fc1cccc(-c2ccccc2Oc2ccc3nnc(Cl)n3n2)c1` [Cpd.4-3, 6-(3′-fluoro-biphenyl-2-yloxy)-3-chloro-[1,2,4]triazolo[4,3-b]pyridazine], the melting point came out at 97.3 °C. The compound further gave a concentration for a half-maximal effect (EC50) at Rev-Erb alpha [1] of 100 to 1000 nM. At Rev-Erb alpha [2], this compound gave a half-maximal effective concentration (EC50) of less than 100 nM.

Consider `Clc1nnc2ccc(Oc3ccccc3Cc3ccccc3)nn12` [Cpd.4-4, 6-(2-benzylphenoxy)-3-chloro-[1,2,4]triazolo[4,3-b]pyridazine], for which the melting point was 113.7 °C. This compound also registered a 50% effective concentration (EC50) on Rev-Erb alpha [1] of 100 to 1000 nM. Moreover, the EC50 on Rev-Erb alpha [2] lay in the range of 100 to 1000 nM.

In turn, `FC(F)(F)c1nnc2ccc(Oc3ccccc3Cc3ccccc3)nn12` [Cpd.4-5, 6-(2-benzylphenoxy)-3-(trifluoromethyl)-[1,2,4]triazolo[4,3-b]pyridazine] gave a melting point of 128.8 °C. Moreover, the EC50 on Rev-Erb alpha [1] lay within 1000 to 6000 nM. On Rev-Erb alpha [2], this compound yielded a concentration for a half-maximal effect (EC50) of 100 to 1000 nM.

With `Clc1nnc2ccc(Cc3ccccc3-c3ccccc3)nn12` [Cpd.4-9, 6-(biphenyl-2-ylmethyl)-3-chloro-[1,2,4]triazolo[4,3-b]pyridazine], the EC50 at Rev-Erb alpha [1] lay within 1000 to 6000 nM; at Rev-Erb alpha [2], 100 to 1000 nM.

Compound `Cc1cc(Oc2cc(C(F)(F)F)ccc2-c2cncnc2)nn2cnnc12` [Cpd.5-46, 8-methyl-6-(2-(pyrimidin-5-yl)-5-(trifluoromethyl)phenoxy)-[1,2,4]triazolo[4,3-b]pyridazine] came in with a melting point of 230 to 234 °C. On Rev-Erb alpha [1], the EC50 is more than 6000 nM and the Emax was more than 130%.

Consider `CCc1nnc2c(C)cc(Oc3cc(C(F)(F)F)ccc3-c3cncnc3)nn12` [Cpd.5-48, 3-ethyl-8-methyl-6-(2-(pyrimidin-5-yl)-5-(trifluoromethyl)phenoxy)-[1,2,4]triazolo[4,3-b]pyridazine], for which the melting point was in the range of 182 to 184 °C. The EC50 at Rev-Erb alpha [1] lay within 1000 to 6000 nM.

`CCc1nnc2cc(C)c(Oc3cc(C(F)(F)F)ccc3-c3cccnc3)nn12` [Cpd.5-49, 3-ethyl-7-methyl-6-(2-(pyridin-3-yl)-5-(trifluoromethyl)phenoxy)-[1,2,4]triazolo[4,3-b]pyridazine] returned a melting point of 174 to 176 °C. Moreover, the 50% effective concentration (EC50) on Rev-Erb alpha [1] was in the range of 1000 to 6000 nM.

Compound `COc1ncc(-c2ccc(C(F)(F)F)cc2Oc2nn3c(Cl)nnc3c3ccccc23)c(OC)n1` [Cpd.5-54, 3-chloro-6-(2-(2,4-dimethoxypyrimidin-5-yl)-5-(trifluoromethyl)phenoxy)-[1,2,4]triazolo[3,4-a]phthalazine] gave a melting point of 240 °C. For the same compound, on Rev-Erb alpha [1], the EC50 is more than 6000 nM and the Emax is more than 130%.

With `COc1ncc(-c2cc(Cl)ccc2Oc2cc(C)c3nnc(Cl)n3n2)cn1` [Cpd.5-55, 3-chloro-6-(4-chloro-2-(2-methoxypyrimidin-5-yl)phenoxy)-8-methyl-[1,2,4]triazolo[4,3-b]pyridazine], the melting point is 170 to 172 °C. Further, at Rev-Erb alpha [1], the EC50 lay in the range of 1000 to 6000 nM.

In turn, `COc1ncc(-c2cc(Cl)ccc2Oc2nn3c(Cl)nnc3cc2C)cn1` [Cpd.5-56, 3-chloro-6-(4-chloro-2-(2-methoxypyrimidin-5-yl)phenoxy)-7-methyl-[1,2,4]triazolo[4,3-b]pyridazine] yielded a melting point of 189 to 192 °C. The EC50 at Rev-Erb alpha [1] fell in the range of 1000 to 6000 nM.

The compound `COc1ncc(-c2cc(Cl)ccc2Oc2nn3c(Cl)nnc3c3ccccc23)cn1` [Cpd.5-57, 3-chloro-6-(4-chloro-2-(2-methoxypyrimidin-5-yl)phenoxy)-[1,2,4]triazolo[3,4-a]phthalazine] returned a melting point of 213 to 215 °C. On Rev-Erb alpha [1], this compound yielded a 50% effective concentration (EC50) of 100 to 1000 nM.

`Cc1cc(Oc2ccc(Cl)cc2-c2cncnc2)nn2c(Cl)nnc12` [Cpd.5-58, 3-chloro-6-(4-chloro-2-(pyrimidin-5-yl)phenoxy)-8-methyl-[1,2,4]triazolo[4,3-b]pyridazine] displayed a melting point of 208 to 210 °C. This compound also yielded an EC50 on Rev-Erb alpha [1] of 1000 to 6000 nM.

The compound `Cc1cc2nnc(Cl)n2nc1Oc1ccc(Cl)cc1-c1cncnc1` [Cpd.5-59, 3-chloro-6-(4-chloro-2-(pyrimidin-5-yl)phenoxy)-7-methyl-[1,2,4]triazolo[4,3-b]pyridazine] yielded a melting point of 224 to 226 °C. Further, at Rev-Erb alpha [1], the EC50 is more than 6000 nM and the Emax is more than 130%.

Turning to `Clc1ccc(Oc2nn3c(Cl)nnc3c3ccccc23)c(-c2cncnc2)c1` [Cpd.5-60, 3-chloro-6-(4-chloro-2-(pyrimidin-5-yl)phenoxy)-[1,2,4]triazolo[3,4-a]phthalazine], the melting point lay within 252 to 253 °C. At Rev-Erb alpha [1], this compound displayed an EC50 of 100 to 1000 nM.

`Cc1cc2nnc(C(F)(F)F)n2nc1Oc1cc(C(F)(F)F)ccc1-c1cncnc1` [Cpd.5-61, 7-methyl-6-(2-(pyrimidin-5-yl)-5-(trifluoromethyl)phenoxy)-3-(trifluoromethyl)-[1,2,4]triazolo[4,3-b]pyridazine] came in with a melting point of 174 to 179 °C. The compound further showed an EC50 on Rev-Erb alpha [1] of 1000 to 6000 nM.

`FC(F)(F)c1ccc(-c2cncnc2)c(Oc2nn3c(C(F)(F)F)nnc3c3ccccc23)c1` [Cpd.5-62, 6-(2-(pyrimidin-5-yl)-5-(trifluoromethyl)phenoxy)-3-(trifluoromethyl)-[1,2,4]triazolo[3,4-a]phthalazine] returned a melting point of 197 to 200 °C. Besides, the concentration for a half-maximal effect (EC50) at Rev-Erb alpha [1] was in the range of 1000 to 6000 nM.

In turn, `Cc1cc(Oc2cc(C(F)(F)F)ccc2-c2cncnc2)nn2c(C(F)(F)F)nnc12` [Cpd.5-63, 8-methyl-6-(2-(pyrimidin-5-yl)-5-(trifluoromethyl)phenoxy)-3-(trifluoromethyl)-[1,2,4]triazolo[4,3-b]pyridazine] came in with a melting point of 167 to 172 °C. The compound further gave an EC50 on Rev-Erb alpha [1] of 1000 to 6000 nM.

With `FC(F)(F)c1ccc(-c2cncnc2)c(Oc2nn3cnnc3c3ccccc23)c1` [Cpd.5-64, 6-(2-(pyrimidin-5-yl)-5-(trifluoromethyl)phenoxy)-[1,2,4]triazolo[3,4-a]phthalazine], the melting point lay in the range of 220 to 230 °C. At Rev-Erb alpha [1], the 50% effective concentration (EC50) lay in the range of 1000 to 6000 nM.

A word on the EC50: it is the concentration giving half of the maximal effect. Read a low EC50 as higher potency in that assay. As a reminder, the melting point is the temperature of the solid-liquid transition.
